Test results: ChEMBL document CHEMBL1909046, “DrugMatrix in vitro pharmacology data”
Where a SMILES comes first, the peptide text is derived from it. Bridges are numbered along the chain shown (N, C = ends). [ ]: non-standard residue; d: D form. The star is where a group is joined. Ileψ(thiazoline)Cys = CC[C@H](C)[C@H](N)C1=N[C@H](C(=O)*)CS1; dOrn = NCCC[C@@H](N)C(=O)O

How the values were obtained:
[1] = molecular target: T1, Alpha-2C adrenergic receptor (Homo sapiens, UniProt P18825); assay: DRUGMATRIX: Adrenergic Alpha-2C radioligand binding (ligand: [3H] MK-912); assay type: cell membranes, Sf9, Membrane; conditions: sf9
T1 sequence (P18825 whole entry): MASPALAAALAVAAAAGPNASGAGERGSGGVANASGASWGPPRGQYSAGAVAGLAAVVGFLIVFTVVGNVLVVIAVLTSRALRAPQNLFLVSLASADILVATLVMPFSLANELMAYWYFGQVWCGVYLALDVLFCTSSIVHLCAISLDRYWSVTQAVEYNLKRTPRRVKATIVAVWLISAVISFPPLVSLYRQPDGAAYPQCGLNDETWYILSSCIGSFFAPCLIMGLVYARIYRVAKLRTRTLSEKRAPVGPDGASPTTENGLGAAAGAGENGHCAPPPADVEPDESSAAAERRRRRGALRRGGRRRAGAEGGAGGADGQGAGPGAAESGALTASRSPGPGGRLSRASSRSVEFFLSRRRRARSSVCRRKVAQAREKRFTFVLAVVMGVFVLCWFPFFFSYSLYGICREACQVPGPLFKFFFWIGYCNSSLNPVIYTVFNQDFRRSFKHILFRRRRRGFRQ

Adenosine receptor A1 = molecular target: T2, Adenosine receptor A1 (Homo sapiens, UniProt P30542); assay type: cell membranes, CHO, Membrane; conditions: cho;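 also: radioligand binding assay at the adenosine A1 receptor, with DPCPX serving as the labelled ligand; in other assays of this panel Not Active means under 50% inhibition at 10 µM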
T2 sequence (P30542 whole entry): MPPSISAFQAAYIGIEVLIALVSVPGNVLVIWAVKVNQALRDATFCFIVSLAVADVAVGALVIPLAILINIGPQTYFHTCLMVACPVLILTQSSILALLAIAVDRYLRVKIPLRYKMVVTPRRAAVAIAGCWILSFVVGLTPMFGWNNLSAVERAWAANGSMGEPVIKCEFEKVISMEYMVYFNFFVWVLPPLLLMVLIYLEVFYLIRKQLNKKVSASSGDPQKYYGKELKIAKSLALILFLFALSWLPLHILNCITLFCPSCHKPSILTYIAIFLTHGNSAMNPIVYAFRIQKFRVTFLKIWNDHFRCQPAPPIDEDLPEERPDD

[2] = molecular target: Beta-1 adrenergic receptor (Homo sapiens, UniProt P08588); assay: DRUGMATRIX: Adrenergic beta1 radioligand binding (ligand: [125I] Cyanopindolol); assay type: cell membranes, CHO-K1, Membrane; conditions: cho-k1; Not Active = under 50% inhibition at 10 µM
Glycine receptor = Glycine receptor (Rattus norvegicus, UniProt P22771+P24524+P07727+P20781); assay type: cell membranes, Wistar, Spinal cord, Membrane; also: in other assays of this panel Not Active means under 50% inhibition at 10 µM
Carbonic anhydrase 2 = Carbonic anhydrase 2 (Homo sapiens, UniProt P00918); assay: DRUGMATRIX: Carbonic Anhydrase II enzyme inhibition (substrate: 4-Nitrophenyl acetate (4-NPA)); assay type: tissue-based, Erythrocyte; conditions: erythrocyte; Not Active = under 50% inhibition at 10 µM
[3] = molecular target: Beta-3 adrenergic receptor (Homo sapiens, UniProt P13945); assay: DRUGMATRIX: Adrenergic beta3 radioligand binding (ligand: [125I] Cyanopindolol); assay type: cell membranes, HEK293, Membrane; conditions: Not Active = under 50% inhibition at 10 µM
[4] = molecular target: C-C chemokine receptor type 5 (Homo sapiens, UniProt P51681); assay type: cell membranes, Membrane; conditions: hek293; also: in other assays of this panel Not Active means under 50% inhibition at 10 µM
[5] = DRUGMATRIX: Calcium Channel Type L, Dihydropyridine radioligand binding (ligand: [3H] Nitrendipine); assay type: cell membranes, Rattus norvegicus, Wistar, Cerebral cortex, Membrane; conditions: Not Active = under 50% inhibition at 10 µM
[6] = DRUGMATRIX: Imidazoline I2, Central radioligand binding (ligand: [3H] Idazoxan); assay type: cell membranes, Rattus norvegicus, Wistar, Cerebral cortex, Membrane; conditions: Not Active = under 50% inhibition at 10 µM
[7] = molecular target: 5-hydroxytryptamine receptor 6 (Homo sapiens, UniProt P50406); assay type: cell membranes, HeLa, Membrane; conditions: hela; also: in other assays of this panel Not Active means under 50% inhibition at 10 µM
[8] = molecular target: T3, C-C chemokine receptor type 4 (Homo sapiens, UniProt P51679); assay type: cell membranes, Membrane; conditions: chem-1; also: in other assays of this panel Not Active means under 50% inhibition at 10 µM
T3 sequence (P51679 whole entry): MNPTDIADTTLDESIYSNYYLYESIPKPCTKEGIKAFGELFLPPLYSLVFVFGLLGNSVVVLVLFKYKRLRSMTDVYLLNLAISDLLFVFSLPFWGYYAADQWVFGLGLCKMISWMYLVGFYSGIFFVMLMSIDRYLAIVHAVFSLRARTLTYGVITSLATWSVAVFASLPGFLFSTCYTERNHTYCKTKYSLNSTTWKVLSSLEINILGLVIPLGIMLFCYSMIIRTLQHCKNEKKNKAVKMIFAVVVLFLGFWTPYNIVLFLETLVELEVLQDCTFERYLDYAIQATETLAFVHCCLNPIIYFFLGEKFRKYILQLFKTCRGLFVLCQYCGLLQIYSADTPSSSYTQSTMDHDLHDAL

Sequence of 5-hydroxytryptamine receptor 6 (P50406 whole entry): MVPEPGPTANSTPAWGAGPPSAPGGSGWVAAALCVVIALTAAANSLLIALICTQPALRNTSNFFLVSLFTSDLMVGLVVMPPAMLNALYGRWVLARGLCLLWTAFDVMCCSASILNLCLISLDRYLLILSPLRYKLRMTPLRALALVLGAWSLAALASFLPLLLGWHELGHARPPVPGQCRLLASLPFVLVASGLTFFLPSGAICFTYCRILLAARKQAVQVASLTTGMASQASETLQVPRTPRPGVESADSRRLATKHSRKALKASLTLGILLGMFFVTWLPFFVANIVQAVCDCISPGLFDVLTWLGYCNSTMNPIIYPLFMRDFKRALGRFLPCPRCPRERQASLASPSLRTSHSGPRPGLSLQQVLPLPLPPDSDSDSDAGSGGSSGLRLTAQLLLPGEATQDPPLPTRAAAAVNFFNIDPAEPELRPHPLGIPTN
Sequence of C-C chemokine receptor type 5 (P51681 whole entry): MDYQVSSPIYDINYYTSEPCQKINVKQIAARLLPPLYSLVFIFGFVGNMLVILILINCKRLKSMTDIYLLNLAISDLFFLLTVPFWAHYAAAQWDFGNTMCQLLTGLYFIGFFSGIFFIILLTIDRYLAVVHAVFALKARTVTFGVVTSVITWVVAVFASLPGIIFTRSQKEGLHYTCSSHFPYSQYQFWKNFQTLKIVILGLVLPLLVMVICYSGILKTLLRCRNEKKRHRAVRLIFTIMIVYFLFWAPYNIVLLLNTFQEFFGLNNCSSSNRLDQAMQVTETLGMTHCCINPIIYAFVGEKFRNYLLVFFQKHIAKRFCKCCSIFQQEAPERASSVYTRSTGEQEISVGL
Sequence of Beta-1 adrenergic receptor (P08588 whole entry): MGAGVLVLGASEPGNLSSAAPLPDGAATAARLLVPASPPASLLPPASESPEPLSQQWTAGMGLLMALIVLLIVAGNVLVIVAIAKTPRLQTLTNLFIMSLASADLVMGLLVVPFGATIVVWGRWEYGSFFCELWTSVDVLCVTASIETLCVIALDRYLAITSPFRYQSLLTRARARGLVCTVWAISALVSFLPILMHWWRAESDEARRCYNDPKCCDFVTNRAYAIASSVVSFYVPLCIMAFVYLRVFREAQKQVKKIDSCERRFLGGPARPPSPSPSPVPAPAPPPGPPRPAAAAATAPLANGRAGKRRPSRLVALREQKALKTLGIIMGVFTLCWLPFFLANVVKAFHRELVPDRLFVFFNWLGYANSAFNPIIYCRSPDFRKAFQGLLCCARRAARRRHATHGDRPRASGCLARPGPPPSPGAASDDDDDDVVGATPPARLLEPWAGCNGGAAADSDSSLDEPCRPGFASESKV
Sequence of Beta-3 adrenergic receptor (P13945 whole entry): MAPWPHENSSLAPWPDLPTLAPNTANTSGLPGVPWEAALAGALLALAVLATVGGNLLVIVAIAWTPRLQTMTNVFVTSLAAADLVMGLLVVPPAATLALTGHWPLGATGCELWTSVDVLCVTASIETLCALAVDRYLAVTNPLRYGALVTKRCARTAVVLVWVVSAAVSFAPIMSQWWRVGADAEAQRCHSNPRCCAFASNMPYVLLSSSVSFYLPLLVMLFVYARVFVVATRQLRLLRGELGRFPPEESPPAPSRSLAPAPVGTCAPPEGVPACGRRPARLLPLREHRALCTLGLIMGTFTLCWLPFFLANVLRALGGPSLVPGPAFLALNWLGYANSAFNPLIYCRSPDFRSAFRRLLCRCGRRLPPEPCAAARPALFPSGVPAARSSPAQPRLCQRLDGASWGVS

Row | Structure (SMILES) | IC50 [1] | IC50 (Adenosine receptor A1) | IC50 [2] | IC50 (Glycine receptor) | IC50 (Carbonic anhydrase 2) | IC50 ([3]; hek293) | IC50 [4] | IC50 [5] | Ki [5] | IC50 [6] | Ki [6] | IC50 [7] | IC50 [8] | IC50 ([3]; read-out: IC50) | Ki ([3]; read-out: Ki)
1 | CC(/C=C1\SC(=S)N(CC(=O)O)C1=O)=C\c1ccccc1 | Not Active | Not Active | Not Active | Not Active | Not Active | Not Active | Not Active | Not Active | Not Active | Not Active | Not Active | Not Active | Not Active |  | 
2 | CCCCCCCCCc1ccc(O)cc1 [4-NONYLPHENOL] | Not Active | Not Active | Not Active | Not Active | Not Active |  | Not Active | Not Active | Not Active | Not Active | Not Active | Not Active | Not Active | 4.19 µM | 3.14 µM
3 | Cc1[nH]cnc1CN1CCc2c(c3ccccc3n2C)C1=O [ALOSETRON] | Not Active | Not Active | Not Active | Not Active | Not Active | Not Active | Not Active | Not Active | Not Active | Not Active | Not Active | Not Active | Not Active |  | 
4 | CC1(C)S[C@@H]2[C@H](NC(=O)[C@H](N)c3ccc(O)cc3)C(=O)N2[C@H]1C(=O)O [AMOXICILLIN] | Not Active | Not Active | Not Active | Not Active | Not Active | Not Active | Not Active | Not Active | Not Active | Not Active | Not Active | Not Active | Not Active |  | 
5 | N=C(N)NCCCCNC(=N)N.O=S(=O)(O)O [ARCAINE SULFATE] | Not Active | Not Active |  | Not Active | Not Active | Not Active | Not Active | Not Active | Not Active | Not Active | Not Active | Not Active | Not Active |  | 
6 | CC[C@H](C)[C@H](N)C1=N[C@H](C(=O)N[C@@H](CC(C)C)C(=O)N[C@H](CCC(=O)O)C(=O)N[C@H](C(=O)N[C@H]2CCCCNC(=O)[C@H](CC(N)=O)NC(=O)[C@@H](CC(=O)O)NC(=O)[C@H](Cc3cnc[nH]3)NC(=O)[C@@H](Cc3ccccc3)NC(=O)[C@H]([C@@H](C)CC)NC(=O)[C@@H](CCCN)NC2=O)[C@@H](C)CC)CS1 [BACITRACIN] ({Ileψ(thiazoline)Cys}-L[dE]IK[dOrn]I[dF]H[dD]N; lactam 4-C) | Not Active | Not Active | Not Active | Not Active | Not Active | Not Active | Not Active | Not Active | Not Active | Not Active | Not Active | Not Active | Not Active |  | 
7 | CC(=O)O[C@]1(C(C)=O)CC[C@H]2[C@@H]3C=C(Cl)C4=CC(=O)CC[C@]4(C)[C@H]3CC[C@@]21C [CHLORMADINONE ACETATE] | Not Active | Not Active | Not Active | Not Active | Not Active | Not Active | Not Active | Not Active | Not Active | Not Active | Not Active | Not Active | Not Active |  | 
8 | C[C@]12CCC(=O)C=C1CC[C@@H]1[C@@H]2C(=O)C[C@@]2(C)[C@H]1CC[C@]2(O)C(=O)CO [CORTISONE] | Not Active | Not Active | Not Active | Not Active | Not Active | Not Active | Not Active | Not Active | Not Active | Not Active | Not Active | Not Active | Not Active |  | 
9 | CC(=O)OCC(=O)[C@@]1(OC(C)=O)[C@@H](C)C[C@H]2[C@@H]3C[C@H](F)C4=CC(=O)C=C[C@]4(C)[C@@]3(F)[C@@H](O)C[C@@]21C [DIFLORASONE DIACETATE] | Not Active | Not Active | Not Active | Not Active | Not Active | Not Active | Not Active | Not Active | Not Active | Not Active | Not Active | Not Active | Not Active |  | 
10 | CCc1cccc2c3c([nH]c12)C(CC)(CC(=O)O)OCC3 (stereo unspecified) [ETODOLAC] | Not Active | Not Active | Not Active | Not Active | Not Active | Not Active | Not Active | Not Active | Not Active | Not Active | Not Active | Not Active | Not Active |  | 
11 | CC(=O)[C@@]1(O)CC[C@H]2[C@@H]3C[C@H](C)C4=CC(=O)C=C[C@]4(C)[C@@]3(F)[C@@H](O)C[C@@]21C [FLUOROMETHOLONE] | Not Active | Not Active | Not Active | Not Active | Not Active | Not Active | Not Active | Not Active | Not Active | Not Active | Not Active | Not Active | Not Active |  | 
12 | CC1(C)[C@@H](O[C@H]2O[C@H](C(=O)O)[C@@H](O)[C@H](O)[C@H]2O[C@@H]2O[C@H](C(=O)O)[C@@H](O)[C@H](O)[C@H]2O)CC[C@]2(C)[C@H]3C(=O)C=C4[C@@H]5C[C@@](C)(C(=O)O)CC[C@]5(C)CC[C@@]4(C)[C@]3(C)CC[C@@H]12 [GLYCYRRHIZIN] | Not Active | Not Active | Not Active | Not Active | Not Active | Not Active | Not Active | Not Active | Not Active | Not Active | Not Active | Not Active | Not Active |  | 
